# Test results from US8937055B2, “Heterocyclic ring compound having muscle cell or adipocyte differentiation regulating action” (Takeda Pharmaceutical Company Limited, priority 2010, dated 2015).
# Experiments:
# [1] = Anti-diabetes action in KKA^y mouse (glycohemoglobin); assay type: in vivo, female KKA^y mouse; conditions: 2 weeks, variation from value before administration, n=6
# Method: Female KKA^y mice (12-13 week-old, CLEA Japan, Inc.) were bred allowing free ingestion of both feed and water. The mice were acclimation bred with powder CE-2 (CLEA Japan, Inc.) from 2 weeks before administration of the test compound. The body weight, blood glycohemoglobin % (GHb %) value, plasma glucose, triglyceride and total cholesterol concentration were measured, and the mice were divided into 3 groups or 5 groups (6 mice/group) such that those measurement values are uniform at the start of the administration. The compound was administered by mixing (0.01-0.03%) in the feed for 2 weeks. GHb % was measured on the last day. GHb % was measured using Tosoh Corporation automatic glycohemoglobin analyzer (HLC-723GHbV Alc2.2). The numerical values in Table 11 show the variation from the value before administration to the measured value after administration in mean±standard deviation at n=6 (n is the number of mice).
# [2] = test system: Mouse-derived myoblast line C2C12 cell; test: Cell differentiation promoting activity in myoblast (creatine kinase activity); assay type: cell-based; conditions: 48 h, 1 μM compound, 2 days in differentiation medium, CK activity without compound = 100%, read-out: creatinine kinase activating action (%)
# Method: • (1) Mouse-derived myoblast line C2C12 cell (Dainippon Pharmaceutical Co., Ltd.) was subcultured in a high glucose Eagle's modified Dulbecco's medium (GIBCO) containing 10% calf fetal bovine serum (GIBCO), 100 unit/mL penicillin and 100 μg/mL streptomycin (hereinafter to be referred to as a growth medium), plated at 5000 cells/cm^2 and cultured at 37° C., under 5% CO2. • (2) When the cells reached subconfluence, the medium was exchanged with a high glucose Eagle's modified Dulbecco's medium (GIBCO) containing 2% horse serum (GIBCO) and penicillin, streptomycin and a test compound (hereinafter to be referred to as a differentiation medium), and the cells were cultured for 2 days. To the control group was added DMSO solution instead of the test compound. • (3) The cells were washed with PBS, 0.5% NP-40 solution was added thereto, and the cells were lysed by freeze-thawing. The cell extract was centrifuged, and the creatine kinase activity in the supernatant was measured as an index of muscle differentiation. The creatine kinase activity was measured using CPKII Test Wako (Wako Pure Chemical Industries, Ltd.) according to the manual of the kit. The tests using the compounds of Example 7 to Example 14 were corrected based on the total protein amount measured using CA Protein Assay Kit (Thermo Scientific).
# The numerical values in Table 3 show CK activity of the compound addition group with the CK activity without addition of the compound as 100%, and 1 μM of the compound was added for the measurement.
# [3] = test system: 3T3-L1 cells; test: Adipocyte differentiation suppressive action (fat droplet quantification); assay type: cell-based; conditions: for lipid accumulation amount in the cell in fat differentiation, result in words: 1 μM; for lipid accumulation (%): 1 μM compound, 6 days, without compound = 100%, n=2
# Method: 3T3-L1 cells (ATCC) were cultured in a growth medium until confluence. 1 μM dexamethasone, 0.5 mM 3-isobutyl-1-methylxanthine and 5 μg/mL insulin were added to the medium, and the cells were cultured for 3 days. The medium was exchanged with a growth medium containing 4 μg/mL insulin and the cells were cultured for 3 more days. When the compound (1 μM) was to be added, it was added after the cells reached confluence, and the cells were cultured for 6 days. After completion of the culture period, the fat droplet formed was quantified using Adipogenesis Assay Kit (CHEMICON). The numerical values in Table 12 show the relative value when without addition of the compound as 100% (n is the number of samples).
# [4] = test system: differentiated C2C12 muscle cell; test: Sugar metabolism promoting activity in muscle cell (lactic acid production); assay type: cell-based, mouse; conditions: C2C12 myotube, 1 μM compound, 2 days; lactic acid concentration without compound = 100%
# Method: • (1) In the same manner as in Experimental Example 1, C2C12 cell was cultured in a growth medium. When the cells reached subconfluence, the medium was exchanged with a differentiation medium, and the cells were cultured for 3 to 4 days while exchanging the medium every 2 or 3 days until the cells differentiated to form a myotube. • (2) After confirmation of myotube formation under a microscope, the compound (1 μM) was added to a differentiation medium and cultured for 2 days. The cells were washed with Krebs-Ringer HEPES phosphate buffer (10 mM HEPES, pH 7.4, 131 mM NaCl, 4.7 mM KCl, 2.5 mM CaCl2-2H2O, 1.2 mM MgSO4-7H2O, 1.2 mM KH2PO4), the medium was exchanged with Krebs-Ringer HEPES phosphate buffer containing 5 mM glucose, 0.2% fatty acid-free bovine serum albumin, and the cells were cultured at 37° C. for 4 hr. • (3) The lactic acid concentration of the culture supernatant was measured using Detarminer LA kit (Kyowa Medex Co., Ltd.).
# The numerical values in Table 4 show the lactic acid concentration of the compound addition group with the lactic acid concentration without addition of the compound as 100%.
# [5] = Anti-obesity action in high-fat diet-loaded mouse; assay type: in vivo, male C57BL/6J mouse; conditions: for plasma total cholesterol concentration (mg/dL) before administration: before administration (baseline); for plasma total cholesterol concentration (mg/dL) before administration / plasma total cholesterol concentration (mg/dL) after administration for 4 weeks / body weight: mean ± SD, n=6; for body weight: once a day for 4 weeks, administration completion day
# Method: As male C57BL/6J mouse (CLEA Japan, Inc.), mice fed with a high-fat diet (45 kcal % fat, D12451, research diet) for 40 weeks from 5 weeks old were used. After acclimation bred for 3 weeks, the body weight, ingestion amount, body fat percentage, plasma triglyceride, insulin and leptin concentration were measured, and the mice were divided into 4 groups at 6 per group without difference between them. Plasma total cholesterol concentration was measured using Hitachi automatic analyzer 7180. The compound of Example 1 was suspended in aqueous methylcellulose solution, and the suspension was orally administered repeatedly to 3 groups of the […] divided into 4 groups at 3 mg/kg, 10 mg/kg or 30 mg/kg once a day for 4 weeks. A 0.5% aqueous methylcellulose solution was orally administered similarly to the remaining one group, and the group was used as a control group. On the administration completion day, the body weight and plasma total cholesterol concentration were measured. The numerical values in Table 5 show mean±standard deviation at n=6 (n is the number of mice).
# [6] = test system: NF-kB; test: NF-kB activation suppressive action in muscle cell (luciferase reporter, TNF-α induced); assay type: cell-based, mouse; conditions: TNF-α 10 ng/mL, activity without TNF-α = 1, n=8
# Method: • (1) C2C12 cells introduced with NF-kB reporter plasmid (C2C12/NF-kB-luc, Panomics) was plated at 20000 cells/cm^2, 100 μg/ml hygromycin was added thereto, and the cells were cultured in a growth medium in the same manner as in Example 1. • (2) The cells were cultured in a differentiation medium containing the compound of Example 1, Example 8, Example 9, Example 10 or Example 11 for 1 hr, TNF-α was added thereto such that the concentration is 10 ng/mL, and the cells were cultured for 4 hr. • (3) The luciferase activity in the medium was measured using a Stedy-Glo luciferase assay system (Promega). The NF-kB activity was evaluated by measuring the luciferase activity.
# The data in Table 6 to Table 10 show mean±standard deviation at n=8 (n is the number of samples).
smiles,measurement,setting,value
"COc1ccc(-c2ccncc2/C=C/C(=O)Nc2ccc(CCc3nnco3)cc2)cc1 [Example 2, (2E)-3-[4-(4-methoxyphenyl)pyridin-3-yl]-N-{4-[2-(1,3,4-oxadiazol-2-yl)ethyl]phenyl}prop-2-enamide]",GHb change (%),[1]; 0.02% mixed with feed,−1%
same,activity at 1 µM,[2],211%
same,"lipid accumulation amount in the cell in fat differentiation, result in words",[3],decrease the lipid accumulation amount in the cell
same,lipid accumulation (%),[3],45%
same,lactic acid production promoting action (%),[4],168.3%
"O=C(/C=C/c1cnccc1-c1ccc(F)cc1)Nc1ccc(CN2CCOCC2)cc1 [Example 6, (2E)-3-[4-(4-fluorophenyl)pyridin-3-yl]-N-[4-(morpholin-4-ylmethyl)phenyl]prop-2-enamide]",GHb change (%),[1]; 0.02% mixed with feed,−1.2%
same,activity at 1 µM,[2],299%
same,lactic acid production promoting action (%),[4],216.7%
"O=C(/C=C/c1cncnc1-c1ccc(F)cc1)Nc1ccc(CCc2nnco2)cc1 [Example 4, (2E)-3-[4-(4-fluorophenyl)pyrimidin-5-yl]-N-{4-[2-(1,3,4-oxadiazol-2-yl)ethyl]phenyl}prop-2-enamide]",GHb change (%),[1]; 0.03% mixed with feed,−0.7%
same,activity at 1 µM,[2],249%
same,lactic acid production promoting action (%),[4],222.9%
"O=C(/C=C/c1cnccc1-c1ccc(F)cc1)Nc1ccc(CCc2nnco2)cc1 [Example 1, (2E)-3-[4-(4-fluorophenyl)pyridin-3-yl]-N-{4-[2-(1,3,4-oxadiazol-2-yl)ethyl]phenyl}prop-2-enamide]",GHb change (%),[1]; 0.01% mixed with feed,−0.4%
same,activity at 1 µM,[2],196%
same,plasma total cholesterol concentration (mg/dL) before administration,[5]; 3 mg/kg/day group,265.5 ± 29.7 mg/dL
same,plasma total cholesterol concentration (mg/dL) after administration for 4 weeks,[5]; 3 mg/kg/day oral,225.9 ± 27.7 mg/dL
same,body weight,[5]; 3 mg/kg/day oral,52.5 ± 2.5 g
same,plasma total cholesterol concentration (mg/dL) before administration,[5]; 10 mg/kg/day group,270.9 ± 24.5 mg/dL
same,plasma total cholesterol concentration (mg/dL) after administration for 4 weeks,[5]; 10 mg/kg/day oral,192.8 ± 27.6 mg/dL
same,body weight,[5]; 10 mg/kg/day oral,49.0 ± 3.2 g
same,plasma total cholesterol concentration (mg/dL) before administration,[5]; 30 mg/kg/day group,275.9 ± 18.2 mg/dL
same,plasma total cholesterol concentration (mg/dL) after administration for 4 weeks,[5]; 30 mg/kg/day oral,161.7 ± 16.9 mg/dL
same,body weight,[5]; 30 mg/kg/day oral,44.9 ± 3.1 g
same,body weight decreasing action,"[5]; administration at 10 mg/kg or above, result in words",showed a body weight decreasing action
same,"plasma total cholesterol concentration, result in words","[5]; high-fat diet-loaded mouse, 4 weeks oral",decreased total cholesterol concentration
same,NF-κB activity (multiple),[6]; 0.001 μM compound,13.2 multiple
same,NF-κB activity (multiple),[6]; 0.003 μM compound,13.4 multiple
same,NF-κB activity (multiple),[6]; 0.01 μM compound,13.7 multiple
same,NF-κB activity (multiple),[6]; 0.03 μM compound,12.5 multiple
same,NF-κB activity (multiple),[6]; 0.1 μM compound,10.7 multiple
same,NF-κB activity (multiple),[6]; 0.3 μM compound,9.4 multiple
same,NF-κB activity (multiple),[6]; 1 μM compound,9.3 multiple
same,NF-κB activity (multiple),[6]; 3 μM compound,8.3 multiple
same,NF-κB activity (multiple),[6]; 10 μM compound,9.0 multiple
same,"lipid accumulation amount in the cell in fat differentiation, result in words",[3],decrease the lipid accumulation amount in the cell
same,lipid accumulation (%),[3],53%
same,lactic acid production promoting action (%),[4],226.1%
"Cc1nnc(CCc2ccc(NC(=O)/C=C/c3cnccc3-c3ccc(F)cc3)cc2)o1 [Example 3, (2E)-3-[4-(4-fluorophenyl)pyridin-3-yl]-N-{4-[2-(5-methyl-1,3,4-oxadiazol-2-yl)ethyl]phenyl}prop-2-enamide]",GHb change (%),[1]; 0.03% mixed with feed,−0.3%
same,activity at 1 µM,[2],249%
same,lactic acid production promoting action (%),[4],175.4%
"COc1ccc(-c2ncncc2/C=C/C(=O)Nc2ccc(CCc3nnco3)cc2)cc1 [Example 5, (2E)-3-[4-(4-methoxyphenyl)pyrimidin-5-yl]-N-{4-[2-(1,3,4-oxadiazol-2-yl)ethyl]phenyl}prop-2-enamide]",GHb change (%),[1]; 0.03% mixed with feed,−0.3%
same,activity at 1 µM,[2],290%
same,lactic acid production promoting action (%),[4],233.3%
